“Also recorded” adds a separate entry of the source.

Data set [1] has as its system IL1β (interleukin 1 beta). The data set can be described thus: Inhibition of LPS-induced synthesis and liberation of cellular IL1β in human mononuclear cells (sandwich enzyme immuno test of supernatant). The class given is cell-based. Particulars: for activity at 10 µM: concentration 0.01 mmol/l; for activity at 100 µM: concentration 0.1 mmol/l; for inhibitory effect on the synthesis and liberation of cytokines from human blood cells / effect on the IL1β level: in words; for effect on the IL1β level: human mononuclear cells, LPS-induced. The method, then:
10 ml of freshly prepared human citrate blood were carefully underlaid with 15 ml of Lymphoprep® (Molter GmbH, Heidelberg) and then centrifuged at 400×g for 40 min. at 20° C. The cell fraction which was visible as a white ring at the phase boundary was withdrawn with the aid of a syringe, diluted 1:1 (v/v) with PM-16 buffer (from Serva Feinbiochemica GmbH & Co. KG, Heidelberg) and then centrifuged, as above, for 10 min. […] Using a cell counter (type IT, from Coulter Diagnostics, Krefeld), the cell suspension, which is composed of about 90% lymphocytes and 10% monocytes, was adjusted to about 5 million cells/ml. Cell viability was monitored before and after the inhibition experiments using the known lactate dehydrogenase method.
The synthesis and liberation of cellular IL1β was induced by adding a solution of 500 ng of lipopolysaccharide (Salmonella abortus equi, Sigma GmbH, Deisenhofen) in 0.01 ml of dimethyl sulfoxide/water (1:10, v/v) to 0.48 ml of the above-described cell fraction. At the same time, a solution of leflunomide or leflunomide metabolite in 0.01 ml of dimethyl sulfoxide (for the final concentration in each case, see Tab. 1) was added to the cell fraction and the mixture was left at 37° C. for 20 h in a commercially available incubator. After cooling down to 0° C., the samples were centrifuged for 1 min. in a bench centrifuge and in each case 0.025 ml aliquots of the supernatant were examined for their IL1β content using a "sandwich" enzyme-immuno test kit (from Biermann GmbH, Bad Nauheim) in accordance with the manufacturer's instructions. The control values were determined without the addition of leflunomide or metabolite and set at 100%.

Data set [2] deals with NMRI mouse. In words: Acute toxicity following intraperitoneal administration, NMRI mice. Particulars: after 3 weeks, Litchfield and Wilcoxon, 30240 min. It counts as in vivo. The method, then: (§1) The acute toxicity following intraperitoneal administration of the test substance was carried out using NMRI mice (20 to 25 g) and SD rats (120 to 195 g). The test substance was suspended in a 1% strength solution of sodium carboxymethyl cellulose. The different doses of the test substance were administered to the mice in a volume of 10 ml/kg of body weight and to the rats in a volume of 5 ml/kg of body weight. 10 animals were used per dose. After 3 weeks, the acute toxicity was determined by the method of Litchfield and Wilcoxon.

Data set [3] relates to SD rat. The data set can be described thus: Acute toxicity following intraperitoneal administration, SD rats. It counts as in vivo. The conditions noted are these: after 3 weeks, Litchfield and Wilcoxon, 30240 min. The method, then: as §1
Data set [4] has as its system isolated blood cell fraction (mononuclear cells). In words: Metabolism of leflunomide in the mononuclear cell test sample (HPLC, time-dependent). It counts as in vitro ADME, human. Particulars: in words; isolated blood cell fraction (mononuclear cells).
Experiment in data set [5]: as above
It counts as in vitro ADME, human. The conditions noted are these: human, mononuclear cells; mononuclear cell test sample, 37° C., HPLC.

[6] abbreviates: Homo sapiens, control without addition = 100%, +/- standard deviation, 20 h, 37° C., LPS 500 ng.

On to `C/C(O)=C(\C#N)C(=O)Nc1ccc(C(F)(F)F)cc1` [Leflunomide metabolite, N-(4-trifluoromethylphenyl)-2-cyano-3-hydroxycrotonamide], for which, in data set [1] (setting [6]), the activity at 10 µM turned out to be 100 ± 3% and the activity at 100 µM amounted to 99 ± 12%. In data set [1], the “inhibitory effect on the synthesis and liberation of cytokines from human blood cells” value is given as “does not exhibit this advantageous effect”; the “effect on the IL1β level” value is recorded as “practically no effect on the IL1β level”.

On to `Cc1oncc1C(=O)Nc1ccc(C(F)(F)F)cc1` [Leflunomide, N-(4-trifluoromethylphenyl)-5-methylisoxazole-4-carboxamide], for which, in data set [2], the “acute toxicity intraperitoneally LD50” value is given as 185 (163-210) mg/kg. Besides, in data set [3], the “acute toxicity intraperitoneally LD50” value is 170 (153-189) mg/kg. The “metabolism of leflunomide under the experimental conditions” value in data set [4] was “did not, to any appreciable extent, metabolize the leflunomide to its metabolites; also recorded: metabolized only very slowly; also recorded: no appreciable metabolism”. In data set [5], this compound had a half-life of roughly 10 h. In data set [1] (Homo sapiens, concentration 0.0001 mmol/l, control without addition = 100%, +/- standard deviation, 20 h, 37° C., LPS 500 ng), the activity at 0.1 µM was found to be 86 ± 11%. Further, in data set [1] (Homo sapiens, concentration 0.005 mmol/l, control without addition = 100%, n = 2, deviation not given, 20 h, 37° C., LPS 500 ng), the activity at 5 µM amounted to 68%. Further, in data set [1] (setting [6]), the activity at 10 µM came to 70 ± 8% and the activity at 100 µM worked out at 17 ± 4%. The activity at 50 µM in data set [1] (Homo sapiens, concentration 0.05 mmol/l, control without addition = 100%, +/- standard deviation, 20 h, 37° C., LPS 500 ng) was 27 ± 6%. In data set [1], the “inhibitory effect on the synthesis and liberation of cytokines from human blood cells” value is “strong inhibitory effect”; the “effect on the IL1β level” value is reported as “clearly lowered”.

(Values after US5556870A, “Use of leflunomide for inhibiting interleukin 1 beta” (priority 1993, dated 1996).)
